Test [1] concerns the target T1, human kappa opioid receptors (Homo sapiens, UniProt P41145).
T1 construct: expressed in transfected cells; host or cells: U2OS
As to the kind of experiment: [35S]GTPγS stimulation, membranes from U2OS cells. Format: biochemical. The settings on record: for Emax: read-out: GTPγS stimulation % efficacy. The procedure:
Membranes from cells stably expressing kappa, mu or delta opioid receptor constructs (PathHunter U2OS hOPRK1, CHO-K1 rOPRM1 and CHO-K1 OPRD1 β-arrestin cell line, DiscoverX, Fremont, Calif., USA) were used. Cells were scraped from tissue culture plates, homogenized with a tissue tearor homogenizer in membrane buffer (10 mM Tris, 100 mM NaCl, and 1 mM EDTA; pH 7.4), and centrifuged at 20,000 g for 30 minutes at 4° C. and frozen at −80° C. until use. Prior to use, the pellets were resuspended in binding buffer (50 mm Tris, 100 mm NaCl, pH 7.4), homogenized with a dounce homogenizer and […] incubated with 1.0 nM of the appropriate tritiated ligand ([^3H]U69,593, [^3H]DAMGO or [^3H]DPDPE for kappa, mu or delta binding, respectively) and the appropriate concentration of compound for 60 minutes at 30° C. Membranes with bound tritiated ligand were collected on Whatman GF/B filter paper (Brandel, Gaithersburg, Md., USA) utilizing a Brandel harvester. Bound tritiated ligand was quantified using a TriCarb-2900TR scintillation counter (Packard, Downers Grove, Ill., USA) following addition of 4 ml ReadySafe scintillation fluid (Beckman Coulter, Indianapolis, Ind., USA). Compiled data for each compound was normalized to the maximal binding in the absence of compound, with non-specific binding subtracted. Curve fitting was done in Microcal Origin 17.0 software using logistic sigmoidal fit, to determine IC50. GTPgammaS Membranes from U2OS cells stably expressing human kappa opioid receptors were used. Cells were scraped from tissue culture plates, homogenized with a tissue tearor homogenizer in membrane buffer (10 mM Tris, 100 mM NaCl, and 1 mM EDTA; pH 7.4), and centrifuged at 20,000 g for 30 minutes at 4° C. and frozen at −80° C. until use. Prior to use, the pellets were resuspended in assay buffer (50 mm Tris, 100 mm NaCl, 5 mM MgCl2, and 1 mM EDTA; pH 7.4) and homogenized with a dounce homogenizer and 50 μg incubated with 0.1 nM [35 S]GTPγS, 10 nM GDP, and the appropriate concentration of agonist for 20 minutes at 30° C. To test inhibition, all samples were incubated with 100 nM U69,593 as well as the appropriate concentration of compound. Membranes with bound [35 S]GTPγS were collected on Whatman GF/B filter paper (Brandel, Gaithersburg, Md., USA) utilizing a Brandel harvester. Bound [35 S]GTPγS was quantified using a TriCarb-2900TR scintillation counter (Packard, Downers Grove, Ill., USA) following addition of 4 mL ReadySafe scintillation fluid (Beckman Coulter, Indianapolis, Ind., USA). […] For each compound, curve fitting was done in Microcal Origin 17.0 software using logistic sigmoidal fit, to determine EC50 and maximal percent stimulation, which in turn was normalized to the maximal percent stimulation of the test full agonist compound U69,593 to determine % efficacy. β2-Arrestin Experiments were conducted using the PathHunter Detection Kit obtained from DiscoverX. Cells stably expressing kappa, mu or delta opioid receptor constructs (PathHunter U2OS hOPRK1, CHO-K1 rOPRM1 and CHO-K1 OPRD1 β-arrestin cell line, DiscoverX, Fremont, Calif., USA) were plated in 96- or 384-well plates. Cells were stimulated with the compounds for 90 minutes at 37° C. To test inhibition, all samples were incubated with 100 nM U69,593 as well as the appropriate concentration of compound. Cells were then incubated for 60 minutes in the presence of galoctosidase substrate, yielding chemiluminescent product. Chemiluminescence was measured using a Synergy Neo microplate reader (BioTek, Winooski, Vt., USA). Antagonism assays were done in the same manner, in the presence of 300 nM U69,593, 1 μM DAMGO or 1 μM DPDPE for KOP-R, MOP-R or DOP-R assays, respectively.

Test [2] concerns the target T2, kappa opioid receptor (PathHunter U2OS hOPRK1 β-arrestin cell line) (Homo sapiens, UniProt P41145).
T2 construct: host or cells: U2OS (PathHunter U2OS hOPRK1 β-arrestin cell line)
The experiment in a line: β-arrestin coupling (PathHunter Detection Kit). The note with it: for Emax at 10 µM: U2OS; for β-arrestin coupling % efficacy: maximal, normalized to U69,593. Format: cell-based. Here is the method: (§1) Membranes from cells stably expressing kappa, mu or delta opioid receptor constructs (PathHunter U2OS hOPRK1, CHO-K1 rOPRM1 and CHO-K1 OPRD1 β-arrestin cell line, DiscoverX, Fremont, Calif., USA) were used. Cells were scraped from tissue culture plates, homogenized with a tissue tearor homogenizer in membrane buffer (10 mM Tris, 100 mM NaCl, and 1 mM EDTA; pH 7.4), and centrifuged at 20,000 g for 30 minutes at 4° C. and frozen at −80° C. until use. Prior to use, the pellets were resuspended in binding buffer (50 mm Tris, 100 mm NaCl, pH 7.4), homogenized with a dounce homogenizer and […] incubated with 1.0 nM of the appropriate tritiated ligand ([^3H]U69,593, [^3H]DAMGO or [^3H]DPDPE for kappa, mu or delta binding, respectively) and the appropriate concentration of compound for 60 minutes at 30° C. Membranes with bound tritiated ligand were collected on Whatman GF/B filter paper (Brandel, Gaithersburg, Md., USA) utilizing a Brandel harvester. Bound tritiated ligand was quantified using a TriCarb-2900TR scintillation counter (Packard, Downers Grove, Ill., USA) following addition of 4 ml ReadySafe scintillation fluid (Beckman Coulter, Indianapolis, Ind., USA). Compiled data for each compound was normalized to the maximal binding in the absence of compound, with non-specific binding subtracted. Curve fitting was done in Microcal Origin 17.0 software using logistic sigmoidal fit, to determine IC50. GTPgammaS Membranes from U2OS cells stably expressing human kappa opioid receptors were used. Cells were scraped from tissue culture plates, homogenized with a tissue tearor homogenizer in membrane buffer (10 mM Tris, 100 mM NaCl, and 1 mM EDTA; pH 7.4), and centrifuged at 20,000 g for 30 minutes at 4° C. and frozen at −80° C. until use. Prior to use, the pellets were resuspended in assay buffer (50 mm Tris, 100 mm NaCl, 5 mM MgCl2, and 1 mM EDTA; pH 7.4) and homogenized with a dounce homogenizer and 50 μg incubated with 0.1 nM [35 S]GTPγS, 10 nM GDP, and the appropriate concentration of agonist for 20 minutes at 30° C. To test inhibition, all samples were incubated with 100 nM U69,593 as well as the appropriate concentration of compound. Membranes with bound [35 S]GTPγS were collected on Whatman GF/B filter paper (Brandel, Gaithersburg, Md., USA) utilizing a Brandel harvester. Bound [35 S]GTPγS was quantified using a TriCarb-2900TR scintillation counter (Packard, Downers Grove, Ill., USA) following addition of 4 mL ReadySafe scintillation fluid (Beckman Coulter, Indianapolis, Ind., USA). […] NA indicates not applicable. For each compound, curve fitting was done in Microcal Origin 17.0 software using logistic sigmoidal fit, to determine EC50 and maximal percent stimulation, which in turn was normalized to the maximal percent stimulation of the test full agonist compound U69,593 to determine % efficacy. β2-Arrestin Experiments were conducted using the PathHunter Detection Kit obtained from DiscoverX. Cells stably expressing kappa, mu or delta opioid receptor constructs (PathHunter U2OS hOPRK1, CHO-K1 rOPRM1 and CHO-K1 OPRD1 β-arrestin cell line, DiscoverX, Fremont, Calif., USA) were plated in 96- or 384-well plates. Cells were stimulated with the compounds for 90 minutes at 37° C. To test inhibition, all samples were incubated with 100 nM U69,593 as well as the appropriate concentration of compound. Cells were then incubated for 60 minutes in the presence of galoctosidase substrate, yielding chemiluminescent product. Chemiluminescence was measured using a Synergy Neo microplate reader (BioTek, Winooski, Vt., USA). Antagonism assays were done in the same manner, in the presence of 300 nM U69,593, 1 μM DAMGO or 1 μM DPDPE for KOP-R, MOP-R or DOP-R assays, respectively. […] NA indicates not applicable. […]

Test [3] concerns the target T3, kappa opioid receptor (PathHunter U2OS hOPRK1 membranes) (Homo sapiens, UniProt P41145).
T3 construct: host or cells: U2OS (PathHunter U2OS hOPRK1 β-arrestin cell line)
The experiment in a line: Tritiated U69,593 binding for KOP-R membranes. Here is the method:
Tritiated U69,593 binding for KOP-R membranes; tritiated DAMGO binding for MOP-R membranes; and tritiated DPDPE binding for DOP-R membranes:
as §1

Setting [4] is: read-out: β-arrestin coupling % efficacy at 10 μM.
Setting [5] is: No stim = no stimulation at highest dose tested, 10,000 nM.
Where [6] appears, read: 1.0 nM [3H]U69,593, 60 minutes at 30° C., read-out: Binding IC50.
Setting [7] is: read-out: β-arrestin coupling % efficacy.

Read-outs that look alike come from different tables or passages of the source.

As usually defined, the EC50 is the concentration giving half of the maximal effect. Usually IC50 stands for the concentration needed to halve the response being measured.

T1 sequence (P41145 whole entry): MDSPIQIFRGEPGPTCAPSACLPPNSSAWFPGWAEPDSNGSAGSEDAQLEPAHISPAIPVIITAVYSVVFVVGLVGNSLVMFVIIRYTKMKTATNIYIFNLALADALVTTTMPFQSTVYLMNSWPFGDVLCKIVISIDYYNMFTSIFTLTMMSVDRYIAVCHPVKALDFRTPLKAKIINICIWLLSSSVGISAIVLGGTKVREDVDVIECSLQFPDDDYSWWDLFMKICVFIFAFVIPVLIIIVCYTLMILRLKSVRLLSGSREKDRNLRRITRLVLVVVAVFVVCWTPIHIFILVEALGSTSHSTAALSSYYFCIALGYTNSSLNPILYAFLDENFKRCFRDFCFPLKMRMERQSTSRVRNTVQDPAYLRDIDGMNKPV
T3 sequence (P41145 whole entry): as above
T2 sequence (P41145 whole entry): as above

On to `O=C(Cc1ccc(Cl)c(Cl)c1)N1CCN(Cc2ccccc2)[C@@H]2COC[C@H](N3CCCC3)[C@H]21` (racemic) [Example 5A53, 1-[4-benzyl-8-pyrrolidin-1-yl-3,4a,5,7,8,8a-hexahydro-2H-pyrano(3,4-b)pyrazin-1-yl]-2-(3,4-dichlorophenyl)ethanone], for which, in test [1], the EC50 is 12 nM and the Emax turned out to be 82%. Besides, the Emax at 10 µM in test [2] (setting [4]) was determined as 80%. Further, the IC50 in test [3] came out at 40 nM.

As for `O=C(Cc1ccc(Cl)c(Cl)c1)N1CCN(CC2CCC2)[C@H]2COC[C@@H](N3CCCC3)[C@@H]21` (single isomer, unassigned) [Example 5A55B], in test [1], the EC50 came out at 13 nM and the Emax worked out at 62%. Moreover, the Emax at 10 µM in test [2] (setting [4]) was found to be 80%. Besides, the IC50 in test [3] is 20 nM.

With `O=C(Cc1cc(Cl)cc(Cl)c1)N1CCN[C@@H]2COC[C@H](N3CCCC3)[C@H]21` (racemic) [Example 5A32], in test [1], the EC50 is 464 nM and the Emax turned out to be 66.5%. For the same molecule, the “β-arrestin coupling EC50” value in test [2] (90 minutes at 37° C., No stim = no stimulation at highest dose tested, 10,000 nM) is “No stim”. Besides, the “β-arrestin coupling % efficacy” value in test [2] (setting [5]) is listed as “No stim”. For the same molecule, the IC50 in test [3] (setting [6]) is 410 nM.

Consider `O=C(Cc1ccc(Cl)c(Cl)c1)N1CCN(S(=O)(=O)C2CC2)[C@H]2COC[C@@H](N3CCCC3)[C@@H]21` (single isomer, unassigned) [Example 5A52B], for which, in test [1], the EC50 came to 18 nM and the Emax was found to be 96%. For the same molecule, in test [2] (setting [4]), the Emax at 10 µM worked out at 25%. Besides, the IC50 in test [3] was 27 nM.

In the case of `O=C(Cc1ccc(C(F)(F)F)cc1)N1CCN[C@@H]2COC[C@H](N3CCCC3)[C@H]21` (racemic) [Example 5A49], in test [1], the EC50 is 109 nM and the Emax worked out at 69%. Besides, the EC50 in test [2] amounted to 11 µM. In addition, in test [2] (setting [7]), the Emax at 10 µM is 36%. Also, the IC50 in test [3] (setting [6]) came to 102 nM.

In the case of `O=C(Cc1ccc(Cl)c(Cl)c1)N1CCN(S(=O)(=O)C2CC2)[C@@H]2COC[C@H](N3CCCC3)[C@H]21` (racemic) [Example 5A52], in test [1], the EC50 was determined as 3 nM and the Emax is 101%. The EC50 in test [2] was 3.3 µM. In addition, the Emax at 10 µM in test [2] (setting [7]) was found to be 79%. For the same molecule, in test [3], the IC50 stood at 5.1 nM.

As for `O=C(Cc1ccc(Cl)c(Cl)c1)N1CCN(S(=O)(=O)C2CC2)[C@@H]2COC[C@H](N3CCCC3)[C@H]21` (single isomer, unassigned) [Example 5A52A], in test [1], the EC50 turned out to be 1.7 nM and the Emax came to 119%. Besides, the Emax at 10 µM in test [2] (setting [4]) is 60%. Besides, in test [3], the IC50 was found to be 3.6 nM.

Turning to `CN(CC1CC1)[C@H]1COC[C@H]2NCCN(C(=O)Cc3ccc(Cl)c(Cl)c3)[C@@H]21` (racemic) [Example 5A50], in test [1], the concentration for a half-maximal effect (EC50) was determined as 93 nM and the Emax was found to be 79%. Moreover, the “β-arrestin coupling % efficacy” value in test [2] (setting [5]) is on record as “No stim”. The IC50 in test [3] came to 297 nM.

For `COC(=O)N1CCN(C(=O)Cc2ccc(Cl)c(Cl)c2)[C@H]2[C@H]1COC[C@@H]2N1CCCC1` (racemic) [Example 5A67], in test [1], the EC50 worked out at 12 nM and the Emax came to 85%. Further, the EC50 in test [2] worked out at 5.2 µM. The Emax at 10 µM in test [2] (setting [7]) was 85%. In test [3], the IC50 worked out at 41 nM.

As to `O=C(Cc1ccc(F)c(Cl)c1)N1CCN[C@@H]2COC[C@H](N3CCCC3)[C@H]21` (racemic) [Example 5A25], in test [1], the EC50 is 571 nM and the Emax is 93%. Moreover, the 50% effective concentration (EC50) in test [2] is 13.6 µM. The Emax at 10 µM in test [2] (setting [7]) was determined as 29%. For the same molecule, the IC50 in test [3] (setting [6]) was 249 nM.

Regarding `O=C(Cc1ccc(Cl)c(Cl)c1)N1CCN(CC2CCCC2)[C@@H]2COC[C@H](N3CCCC3)[C@H]21` (racemic) [Example 5A54], in test [1], the EC50 was 31 nM and the Emax turned out to be 73%. Further, the Emax at 10 µM in test [2] (setting [4]) came to 20%. The IC50 in test [3] came out at 73 nM.

As for `O=C(Cc1cccc(Cl)c1)N1CCN[C@@H]2COC[C@H](N3CCCC3)[C@H]21` (racemic) [Example 5A24], in test [1], the 50% effective concentration (EC50) came to 213 nM and the Emax stood at 64%. Moreover, the “β-arrestin coupling % efficacy” value in test [2] (setting [5]) is “No stim”. In addition, the IC50 in test [3] (setting [6]) is 251 nM.
